From patent US6995150B2, “Pharmaceutical compositions and uses for androst-5-ene-3β, 17β-diol” (Endorecherche, Inc., priority 1998, dated 2006)
“Also recorded” adds a separate entry of the source.

Experiments:
[1] = system: human mammary tumor ZR-75-1 cells; conditions: concentrations within range of plasma levels in adult women; cited from earlier work
MCF-7 cells = conditions: cited from earlier work
orchiectomized rats [2] = experiment: Ventral prostate and seminal vesicle weight in orchiectomized rats, percutaneous administration; type: in vivo, rat
Method: (§1) Intact animals are used as additional controls.
as §1
(§2) Male and female Sprague-Dawley rats [Crl: CD (SD)Br] weighing 225-250 g and 175-200 g, respectively, were obtained from Charles River Canada Inc. (St-Constant, Québec) and housed 2 per cage under a regimen of 14 h of light/da, (lights on at 07:15 h). Animals received Purina rat chow and water ad libitum. The animal studies were conducted to the “Guideline for Care and use of Experimental Animals”.
(§3) The animals were randomly divided into the indicated groups (8 and 10 rats per group for subcutaneous and topical administration, respectively). The animals of the appropriate groups were bilaterally ovariectomized (OVX) or orchiectomized (ORCH) under ether anesthesia while other rats were used as intact controls.
(§4) Seven days after starting treatment or approximately 12 h after last administration of the steroid, the animals were killed by decapitation. Blood samples were collected individually and serum was frozen at −20° C. until assayed. Uteri, ovaries, ventral prostates, dorsal prostates and seminal vesicles were immediately removed, freed from connective and adipose tissue, weighed, frozen in liquid nitrogen, and stored at −80° C. until assayed. Three rats from the indicated treatment groups were perfused with paraformaldehyde for in situ hybridization.

[3] = Serum steroid concentrations (DHEA, 5-DIOL, 4-dione, testosterone, DHT) in ovariectomized rats, percutaneous administration; conditions: for serum levels of 5-DIOL, 5-DIOL versus DHEA: higher doses; for concentration at 12 h: female, Sprague-Dawley, rat, in vivo
Method: (§5) Intact animals are used as additional controls. The compounds were dissolved in 50% ethanol-50% propylene glycol and were administered in 0.1 ml on the dorsal skin area (2 cm×2 cm).
as §5, §5
Intact animals are used as additional controls. The compounds were dissolved in 50% ethanol-50% propylene glycol and were administered in 0.1 ml on the dorsal skin in area (2 cm×2 cm).
as §5, §2, §3, §4
Steroid extraction, Ethanol (5 ml) was added to 1 ml serum and centrifugation at 2000×g was preformed for 15 min. The resulting pellet was further extracted with 2 ml ethanol and, after a second centrifugation at 2000×g for 15 min, the two supernatants were combined. The suspension was recentrifuged as described above and the supernatant was decanted and combined with the previously obtained ethanol extracts. The organic solvent was then evaporated under nitrogen and the residue was dissolved in 1 ml water: methanol (95:5, v/v). The C-18 columns (Bound-Elut, Amersham, Bucks, U.K.) were conditioned by passing consecutively 10 ml methanol, 10 ml water and 10 ml methanol/water (5:95, v/v). The extracts solubilized in water:methanol (95:5, v/v) were then deposited on the C-18 columns. After washing the columns with 2 ml water:methanol (95:5, v/v) and 5 ml methanol:water (50:50, v/v), 5 ml methanol:water (85:15, v/v) were added to eluate the non-conjugated steroids.
Chromatography on Sephadex LH-20 columns (Pharmacia, Uppsala, Sweden) was performed as previously described (Bélanger et al., 1988). In brief, steroids were solubilized in 1 ml isooctane/toluene/methanol (90:5:5, v:v:v) and deposited on the LH-20 columns. Fractions were collected and, after evaporation of the organic solvent, the concentration of the various steroids was determined by radioimmunoassay as previously described (Bélanger et al., 1980; Bélanger et al., 1988; Bélanger et al., 1990)
Radioimmunoassay data were analyzed using a program based on model II of Rodbard and Lewald (Rodbard, 1974). Plasma steroid levels are shown as the means±SEM of duplicate determinations of individual samples.

orchiectomized rats [4] = experiment: Prostate and seminal vesicle weight in orchiectomized rats, subcutaneous administration; type: in vivo, rat; conditions: ORCH rats; for ED50 of maximal effect on prostate weight: half of each compound's own maximal effect
Method: as §1, §1, §2, §3, §4

ovariectomized rats [5] = experiment: Uterine weight in ovariectomized rats, percutaneous administration twice daily for 7 days; type: in vivo, rat; conditions: for effect on uterine weight: percutaneous; for maximal reversal of the inhibitory effect of ovariectomy on uterine weight: 100 mg percutaneous twice daily, 7 days
Method: as §5, §2, §3, §4

ovariectomized rats [6] = experiment: Serum LH concentration in ovariectomized rats, percutaneous administration; type: in vivo, rat; conditions: OVX rats
Method: as §5, §2, §3, §4
Serum LH was measured by double-antibody radioimmunoassay using rat hormones (LH-I-6 for iodination; LH-RP-2 as standard), and the rabbit antisera anti-r-LH-S-8, generously supplied by the National Pituitary Program, Baltimore, USA.
(§6) Radioimmunoassay data were analyzed using a program based on model II of Rodbard and Lewald (Rodbard, 1974). Plasma steroid levels are shown as the means±SEM of duplicate determinations of individual samples. In situ hybridization data were obtained as follows: for each prostatic tissue section, 20 randomly selected areas measuring 0.25 mm^2 (excluding acinar lumen) were analyzed using an Image Research Analysis System (Amersham, Arlington Heights, Ill.) and the mean optical density value for each section was calculated. Data are shown as the means±SEM of 20 readings from 6-8 prostatic sections originating from ventral 3 prostates. Statistical significance was measured according to the multiple range test of Duncan-Kramer (Kramer, 1956).

ovariectomized rats [7] = experiment: Uterine weight in ovariectomized rats, subcutaneous administration twice daily for 7 days; type: in vivo, rat; conditions: for dose giving half-maximal stimulation of uterine weight: OVX rats
Method: as §1, §2, §3, §4

[8] = system: mRNAs encoding the C1 and C3 components of prostatic binding protein; experiment: PBP-C1 and PBP-C3 mRNA in the ventral prostate of orchiectomized rats, percutaneous administration; type: in vivo, rat; conditions: ORCH rats, depending on dosage
Method: as §1, §1, §2
The animals were randomly divided into the indicated groups (8 and 10 rats per group for subcutaneous and topical administration, respectively). […]
as §6, with “Plasma steroid levels are shown as the means±SEM of duplicate determinations of individual samples.” left out

| SMILES | serum levels of 5-DIOL, 5-DIOL versus DHEA ([3]; percutaneous, OVX rats) | ED50, dose giving half-maximal reversal of the effect of orchiectomy on prostate weight (orchiectomized rats [4]) | half-maximal reversal of the effect of orchiectomy on seminal vesicle weight (dose) (orchiectomized rats [4]) | ED50 of maximal effect on prostate weight (orchiectomized rats [4]) | effect on uterine weight (ovariectomized rats [5]; 10 mg and 30 mg doses) | maximal reversal of the inhibitory effect of ovariectomy on uterine weight (ovariectomized rats [5]) | effect on uterine weight (ovariectomized rats [5]; 1 and 3 mg doses) | inhibition of serum LH below the value in intact control animals (ovariectomized rats [6]; 30 mg dose) | inhibition of serum LH below the value in intact control animals (ovariectomized rats [6]; 100 mg dose) | dose giving half-maximal stimulation of uterine weight (ovariectomized rats [7]) | also measured |
| --- | --- | --- | --- | --- | --- | --- | --- | --- | --- | --- | --- |
| C[C@]12CC[C@H]3[C@@H](CC=C4C[C@@H](O)CC[C@@]43C)[C@@H]1CC[C@@H]2O [5-DIOL, androst-5-ene-3β,17β-diol] | no significant difference | 1 mg | ~1.2 mg | 1.2 mg | comparable stimulation | 52% | no significant effect | approximately 35% | ~70% | 0.5 mg | cell proliferation [1]: enhances cell proliferation; progesterone receptor levels [1]: enhances; estrogen-dependent synthesis of the 52 kDa glycoprotein (MCF-7 cells): increases; reversal of the effect of castration on ventral prostate weight (orchiectomized rats [2]; 15 mg dose, percutaneous): 50%; serum DHEA level ([3]; 3, 10, 30 and 100 mg dosages, percutaneous, OVX rats): relatively constant but low level; levels of serum DHT ([3]; across the dosage range, percutaneous, OVX rats): substantially constant and relatively low; serum levels of 5-DIOL compared with the other steroid ([3]; lower doses, 1 and 3 mg, percutaneous, OVX rats): higher levels; serum LH (ovariectomized rats [6]; 10 mg dose): 0.86 ± 0.17 ng/mL; reversal of the effect of 1-week ovariectomy on uterine weight (ovariectomized rats [7]; 0.3 mg): 90% |
| C[C@]12CC[C@H](O)CC1=CC[C@@H]1[C@@H]2CC[C@]2(C)C(=O)CC[C@@H]12 [DHEA, dehydroepiandrosterone] | no significant difference | 1 mg | ~2.5 mg | 2.5 mg | comparable stimulation | 42% | no significant effect | approximately 35% | ~70% | ~2.5 mg | stimulation of PBP-C1 and PBP-C3 mRNA levels by DHEA relative to 5-DIOL [8]: two to five times the effect; also recorded: two to five times more potent; reversal of the inhibitory effect of orchiectomy on ventral prostate weight (orchiectomized rats [2]; 10 mg dose, percutaneous): about 75%; androgenic activity of DHEA relative to 5-DIOL where equivalent estrogenic effects are provided (orchiectomized rats [2]; percutaneous administration): two to three times more androgenic activity; potency of DHEA relative to 5-DIOL in increasing seminal vesicle weight (orchiectomized rats [2]; percutaneous, ORCH rats): 1 fold; concentration at 12 h ([3]; 3 mg): 1.74 ± 0.3 nM; concentration at 12 h ([3]; 30 mg): 12.9 ± 3.69 nM; concentration at 12 h ([3]; 100 mg): 39.2 ± 6.5 nM; inhibitory effect on serum LH (ovariectomized rats [6]; 10 mg dose): 61%; effect on uterine weight (ovariectomized rats [7]; 0.3 mg): no significant effect |
